Earlier results, collected in patent publication US7179253B2, “Method of tattoo removal” (3M Innovative Properties Company, priority 2003, dated 2007).

Test system: tattoo ink pigments in tattooed regions
Settings: guinea pigs; topical 5% cream started within six hours of tattoo application, continued for seven days

CC(C)Cn1cnc2c(N)nc3ccccc3c21 [imiquimod, 1-(2-methylpropyl)-1H-imidazo[4,5-c]quinolin-4-amine]
visible tattoo pigment in the tattooed regions at the conclusion of the treatment period: no pigment of any color was visible
